Data on twelve molecules can be found in patent US8815936B2 (Nad Life Pty Ltd, priority 2008, dated 2014).

Experiment [1] has as its system primary human foetal astrocytes. The experiment is described as follows: Intracellular NAD+ levels in cultured human foetal astrocytes (NAD(H) microcycling assay). It is filed as cell-based. As to conditions: for abrogation of resveratrol-induced increase of intracellular NAD+ by de novo pathway inhibitor: inhibitor 1 mM + resveratrol 100 μM; for reversal of NAD+ depletion compared to 1-MT treatment alone: supplementation together with 1-MT.

The test system of experiment [2] is human primary Fibroblasts. Kind of experiment: Residual DNA damage (dsDNA breaks) after UVB, Fibroblasts. The settings on record: for amount of dsDNA breaks: EC100 or EC100 equivalent combinations; for EC100: mono therapy, DNA repair. The class given is cell-based.
In experiment [3] the test system is primary human foetal astrocytes. The experiment is described as follows: H2O2-mediated intracellular NAD+ depletion in human foetal astrocytes. It is filed as cell-based. As to conditions: for intracellular NAD+ after oxidative (H2O2) insult: 24 hour pre-treatment (Melatonin 5 μM, Clioquinol 10 μM, resveratrol 100 μM), then 100 μM H2O2 15 min.
The test system of experiment [4] is Human neuroblastoma cells (SK-N-SH). Kind of experiment: Intracellular NAD+ in human neuroblastoma cells treated with H2O2, iron and ascorbic acid. The settings on record: for depletion of intracellular NAD+ levels: pre-treatment with 2, 20 and 200 μM, 100 μM H2O2. It is filed as cell-based.
The test system of experiment [5] is human primary Keratinocytes. The experiment is described as follows: Residual DNA damage (dsDNA breaks) after UVB, Keratinocytes. The settings on record: for amount of dsDNA breaks: EC100 or EC100 equivalent combinations; for EC100: mono therapy, DNA repair. The class given is cell-based.
Experiment [6] has as its system human primary Keratinocytes. The experiment is described as follows: Intracellular NAD 24 hr after UVB exposure in human skin cells. The class given is cell-based. As to conditions: single therapy 24 hrs after 15 min UVB; NAD levels / LDH activity; N=3. As for the experimental part: Human skin cells (keratinocytes) were grown at a density of 5×10^6 in PERMANOX® chamber-slides (NUNC) for 2 weeks. This method is commonly used in the industry and is well known to those skilled in the art. Accordingly, there is no need to detail the method utilised in this specification.
Cells were either left unexposed or exposed to 15 min UVB (˜200 mJcm^−2).
Cells were left to incubate for 24 hrs before analysis of intracellular NAD (FIG. 19a-d to FIG. 21) and extracellular LDH (FIG. 21). FIGS. 19a-d show the intracellular NAD concentrations+/−UV exposure, +/−supplementation. FIGS. 19e-h show supernatant LDH activity+/−UVE exposure, +/−supplementation.

The test system of a further experiment is PARP-1. The settings on record: exposure to 10-100 μM H2O2 for 20 min.
In experiment [7] the test system is primary human foetal astrocytes. The settings on record: exposure to 10-100 μM H2O2 for 20 min.
In experiment [8] the target is human recombinant NMNAT (hr-NMNAT1) (Homo sapiens, UniProt Q9HAN9). As to conditions: resveratrol 50, 100 and 200 μM.
human recombinant NMNAT (hr-NMNAT1), sequence (Q9HAN9 whole entry): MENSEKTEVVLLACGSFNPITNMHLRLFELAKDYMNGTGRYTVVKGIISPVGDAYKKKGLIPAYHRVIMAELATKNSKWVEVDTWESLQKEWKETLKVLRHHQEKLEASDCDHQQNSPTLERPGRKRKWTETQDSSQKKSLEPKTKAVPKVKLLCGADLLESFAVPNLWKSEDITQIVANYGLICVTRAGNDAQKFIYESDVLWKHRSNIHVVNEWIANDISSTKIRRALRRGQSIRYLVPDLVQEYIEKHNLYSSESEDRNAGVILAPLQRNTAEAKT
In experiment [9] the test system is nicotinamide mononucleotide adenylyl transferase (NMNAT). The experiment is described as follows: NMNAT activity in whole cell homogenates of human brain astrocytes. It is filed as biochemical.

As for `Cn1cc(C[C@H](N)C(=O)O)c2ccccc21` [1-MT, 1-methyl tryptophan], the “intracellular NAD+ levels” value in experiment [1] (1-MT 1 mM, 24 h) is listed as “significant decrease”. Further, in [1] (24 hour), the “abrogation of resveratrol-induced increase of intracellular NAD+ by de novo pathway inhibitor” value is listed as “Neither inhibitor was able to abrogate the resveratrol effect”.

`COc1ccc2[nH]cc(CCNC(C)=O)c2c1` [Melatonin]: the “reduction in damaged DNA” value was approximately 40% in experiment [2] (24 hr after UVB exposure) and approximately 30% in experiment [5] (24 hr after UVB exposure). Besides, the “amount of dsDNA breaks” value in [2] (24 hr after UVB exposure) and in experiment [5] (24 hr after UVB exposure) was “significantly reduced” throughout. The EC100 in experiment [2] and in experiment [5] was 100 µM each time. Also, the “intracellular NAD+ after oxidative (H2O2) insult” value in [3] is listed as “significantly reduced NAD^+ depletion”. Also, the “depletion of intracellular NAD+ levels” value in [4] is reported as “inhibited”.

For `Oc1c(I)cc(Cl)c2cccnc12` [Clioquinol], the “Minimum effective concentrations (MEC)” value in experiment [6] turned out to be 0.1 µM. Moreover, the “amount of dsDNA breaks” value in experiment [2] (24 hr after UVB exposure) and in [5] (24 hr after UVB exposure) was “significantly reduced” throughout. Also, the EC100 in experiment [2] and in experiment [5] was 0.1 µM each time. In addition, in experiment [3], the “intracellular NAD+ after oxidative (H2O2) insult” value is recorded as “significantly reduced NAD^+ depletion”. In addition, in experiment [4] (Clioquinol 1 μM-100 μM, dose dependant, 100 μM H2O2, 10 μM iron, 10 μM ascorbic acid), the “.OH-induced NAD+ depletion” value is listed as “effectively reduced”.

Vitamin E: the “depletion of intracellular NAD+ levels” value in experiment [4] was “inhibited”.

In the case of `NC(=O)c1ccccn1` [Picolinamide], the “amount of dsDNA breaks” value in experiment [2] (24 hr after UVB exposure) and in experiment [5] (24 hr after UVB exposure) was “significantly reduced” in each case. Further, the EC100 in [2] and in experiment [5] was 100 µM throughout.

Turning to `OO` [H2O2, hydrogen peroxide], the PARP-1 activity result in the experiment on PARP-1 was “significantly increased”. Further, the “Intracellular NAD+” value in experiment [3] (exposure to 10-100 μM H2O2 for 20 min) is listed as “significantly decreased”. The “LDH activity (a measure of cell death)” value in experiment [7] is “significantly increased”.

Regarding `O=C(O)c1cccnc1` [nicotinic acid, Nicotinic acid], the “reversal of NAD+ depletion compared to 1-MT treatment alone” value in [1] (24 h) is on record as “partially reversed”.

Take `N[C@@H](Cc1c[nH]c2ccccc12)C(=O)O` [L-tryptophan]: the “reversal of NAD+ depletion compared to 1-MT treatment alone” value in [1] (24 h) is “partially reversed”.

Consider `O=C(O)c1ccccc1C(=O)O` [PA], for which the “abrogation of resveratrol-induced increase of intracellular NAD+ by de novo pathway inhibitor” value in [1] (24 hour) is “Neither inhibitor was able to abrogate the resveratrol effect”.

With `Oc1ccc(/C=C/c2cc(O)cc(O)c2)cc1` [Resveratrol, 3,5,4′-trihydroxystilbene], the “Minimum effective concentrations (MEC)” value in experiment [6] is 50 µM. Moreover, the “intracellular NAD+ versus control levels” value in experiment [1] (resveratrol 100 μM, 24 hour) is recorded as “significantly increased”. Further, the “increase in intracellular NAD+ concentration” value in experiment [1] (resveratrol 100 μM, 24 hour, cells not subject to oxidative stress) was “approximately 75%”. Besides, the “amount of dsDNA breaks” value in [2] (24 hr after UVB exposure) and in [5] (24 hr after UVB exposure) was “significantly reduced” each time. The EC100 in [2] and in experiment [5] was 100 µM throughout. For the same molecule, the “decrease of Km” value in experiment [8] is “approximately 3 times”. Moreover, the “intracellular NAD+ after oxidative (H2O2) insult” value in experiment [3] is on record as “did not show a significant change”. In addition, the “apparent antioxidant activity (H2O2-mediated NAD+ depletion)” value in experiment [3] (resveratrol 100 μM 24 hour, then H2O2 20 minutes) is “small reduction in NAD^+ depletion”. Further, the “increase of NMNAT activity compared to control” value in experiment [9] (200 μM resveratrol, whole cell homogenates) was found to be 67%. In experiment [9] (presence of resveratrol (FIG. 16)), the “increase of NMNAT activity in the whole cell extract” value is recorded as “approximately 70%”.

For `O=c1c(O)c(-c2ccc(O)c(O)c2)oc2cc(O)cc(O)c12` [Quercetin], in experiment [3] (quercetin (50 μM) overnight, then 10-100 μM H2O2 for 20 min), the “NAD+ levels after H2O2 exposure” value is listed as “significantly preserved”.

On to `O=C(OC[C@H]1O[C@@H](OC(=O)c2cc(O)c(O)c(OC(=O)c3cc(O)c(O)c(O)c3)c2)[C@H](OC(=O)c2cc(O)c(O)c(OC(=O)c3cc(O)c(O)c(O)c3)c2)[C@@H](OC(=O)c2cc(O)c(O)c(OC(=O)c3cc(O)c(O)c(O)c3)c2)[C@@H]1OC(=O)c1cc(O)c(O)c(OC(=O)c2cc(O)c(O)c(O)c2)c1)c1cc(O)c(O)c(OC(=O)c2cc(O)c(O)c(O)c2)c1` [tannic acid], for which, in experiment [1] (100 μM, 24 hour incubation), the “NAD+ levels, tannic acid alone” value is given as “did not significantly reduce”. In addition, the “effect of resveratrol on intracellular NAD+ levels in presence of tannic acid” value in [1] (tannic acid 100 μM + resveratrol 100 μM, 24 hours) is reported as “completely abrogated”.
